Data: US20180064829A1, “FLUORESCENT BISPHOSPHONATE ANALOGS” (University of Southern California, priority 2015, published 2018)

Assays:
[1] = UV-VIS absorption and fluorescence emission spectra; format: physicochemical; settings: 0.1M phosphate buffer (1x PBS for 7d5); ± 1 nm error
Method: All labeled samples were dissolved in water and diluted with 0.1 M phosphate buffer or 1×PBS (for 7d5). Assuming that the labeled bisphosphonates have the same extinction coefficient (E) as the carboxylic acid of the free fluorescent label, the final concentrations for all labeled products were calculated from UV-VIS absorption spectra at λ=493 nm (ε=73000 M^−1 cm^−1 at pH 7.2) for FAM conjugates (7a1-7a3, 7b1, 7c1, 7d1-7d2, 7e1-7e2, 7f1-7f2), λ=567.5 nm (ε=114850 M^−1cm^−1 at pH 7.5) for RhR-X conjugates (7a4, 7b2, 7c2), λ=580 nm (c=72000 M^−1cm^−1 at pH 8.0) for ROX conjugates (7a5, 7b3), λ=648 nm (ε=240000 M^−1cm^−1 at pH 7.2) for AF647 conjugates (7a6, 7b4, 7d3), λ=774 nm (ε=240000 M^−1cm^−1 at pH 7.4) for 800CW conjugates (7d4), λ=644 nm (ε=271000 M^−1cm^−1 at pH 7.4, 1×PBS) for Sulfo-Cy5 conjugates (7d5).
Emission spectra for FAM and RhR-X conjugates were recorded using an excitation wavelength of 490 nm or 520 nm, respectively. Emission spectra for AF647 conjugates and Sulfo-Cy5 conjugates were recorded using an excitation wavelength of 600 nm. Emission spectra of 5(6)-ROX conjugates were recorded using an excitation wavelength of 575 nm. Emission spectra of IRDye CW800 conjugate was recorded using an excitation wavelength of 750 nm. The set-up of excitation slit, emission slit, integration time and increment were determined to get optimal spectra for each compound respectively, depending on the sample concentration and spectrometer used.

[2] = Hydroxyapatite (HAP) column chromatography binding assay; settings: pH 6.8, phosphate gradient 1 to 1000 mM; FIG. 3
Method: The fast performance liquid chromatography (FPLC) system consisted of a Waters 650E advanced protein purification system (Millipore Corp., Waters chromatography division, Milford, Mass.), a 600E system controller and a 484 tunable absorbance detector for UV absorbance assessment. Ceramic hydroxyapatite [HAP, […], Macro-Prep® Ceramic Hydroxyapatite Type II 20 μm 100 g, Bio-Rad Laboratories, Inc. Hercules, Calif.] was equilibrated with 1 mM phosphate buffer (pH 6.8) and packed in a 0.66 cm (diameter)×6.5 cm (length) glass column (Omnifit, Bio-chem Valve™ inc., Cambridge, U.K.), which was attached to the Waters 650E advanced protein purification system. Each sample was prepared in 1 mM potassium phosphate buffer, and 100 μL of 1 mM (0.1 μmol) sample was injected into the FPLC system. As a consequence, the compounds were absorbed and subsequently eluted at a flow rate of 2 ml/min by using a linear concentration gradient of phosphate from 1 to 1000 mM at pH 6.8. Fractions of each sample were collected in 80 tubes using an automated fraction collector (Gilson, France) and then used for subsequent ultraviolet (SPECTRAmax PLUS 384, Molecular Devices, CA) or fluorescence spectrometry detection (WALLAC VICTOR™, 1420 MULTILABEL COUNTER, Perkin Elmer, USA). […] The elution profile for each sample was determined in triplicate for statistical analysis (Prism, GraphPad Software, USA). […]

[3] = test system: unprenylated Rap1A (uRap1A); test: Prenylation assay: Western blot for unprenylated Rap1A in J774.2 macrophages; format: cell-based, mouse; settings: 10 or 100 μM, 24 h, FIG. 5A-C
Method: To determine the effect of fluorescent BP probes on protein prenylation, J774.2 mouse macrophages were plated out at 2×10^5 cells/mL in 24-well plates and left to adhere overnight. Cells were then treated with 10 or 100 μM of fluorescent analogues of RIS, dRIS, and ZOL, the respective native BP, or vehicle, for 24 h. Cells were lysed in radioimmunoprecipitation buffer, and proteins were separated by sodium dodecyl sulfate polyacrylamide gel electrophoresis and transferred to polyvinyl difluoride membranes by western blotting. Membranes were then incubated with antibodies to the unprenylated form of Rap1A (uRap1A) and the housekeeping protein β-actin, which were detected by incubation with fluorescently-labeled secondary antibodies and scanning of membranes on a LI-COR Infrared Imager. Results shown are representative of 2 independent experiments. The ratio between abundance of unprenylated RaplA and β-actin is indicated for each sample below the blots in FIG. 5.

[4] = pH 7.2, 0.1M phosphate buffer; assumed the same as the corresponding fluorescent dye; cited from earlier work
[5] = pKa and protonation status of the heterocyclic nitrogen; format: physicochemical; settings: pH 6.0; calculated by Henderson-Hasselbalch equation
Text: The nucleophilicity and Lewis basicity of the nitrogen atom of the three heterocyclic N-BPs studied in this report vary, and these properties appear to be the major determinants of their conjugation reactivity. Thus, the ‘magic linker’ methodology for RIS required modification for ZOL (1d), MIN (1e), and their related analogues (1f). […] The protonation status of the heteroatom at different pH is also critical to the reactivity. […] Under such conditions, more than 50% (˜71.3% calculated) of the nitrogen of RIS will be deprotonated, and able to attack the epoxide ring nucleophilically. However, at pH 6.0, only 18% of the nitrogen of ZOL (22% for MIN) is deprotonated, thus the reactions were very slow (2d) at pH 6.0. At pH 7.0-7.5, reaction was more rapid, but the regioselectivity (N-alkylation vs. O-alkylation) for 1d, 1e, 1f was not as good as for RIS and its analogues (1a, 1b, 1c); 10-20% of side products could be observed, which were confirmed by HPLC, NMR and MS to be the products of N,O(P)-dialkylation (O-alkylation occurs between the phosphonate/carboxylate group of the drug and the epoxide). The reaction rate of MinPC (1f)-epoxide (5) coupling was even slower than ZOL under the same reaction conditions (same reactant ratio, pH 7.5, 40-45° C.), which might be due to a steric effect from the large heterocycle. In addition, the percent of side products was higher and O-alkylation products were also observed in the reaction mixture.
The following publications are incorporated by reference herein in their entirety: • [1] a) R. G. G. Russell, N. B. Watts, F. H. Ebetino, M. J. Rogers, Osteoporos. Int. 2008, 19, 733-759; b) F. Ebetino, A. Hogan, S. Sun, M. Tsoumpra, X. Duan, J. Triffitt, A. Kwaasi, J. Dunford, B. Barnett, U. Oppermann, M. Lundy, A. Boyde, B. Kashemirov, C. McKenna, R. Russell, Bone 2011, 49 20-33. • [2] a) I. Reid, M. Bolland, A. Grey, Bone 2007, 41, 318-320; b) A. Siddiqi, A. Payne, S. Zafar, Oral Surg. Oral Med. Oral Pathol. Oral Radiol. Endod. […]

[6] = test system: unprenylated Rap1A (uRap1A); settings: PC analogues versus N-BPs; cited from earlier work
[7] = parent compounds, ref. [23]; cited from earlier work

Row | Structure (SMILES) | fraction of the heterocyclic nitrogen deprotonated [5] [%] | activity in uRap1A and J774.2 cell viability screening assays [6] | rank order of mineral binding affinity [7] | other results
1 | O=C(NCC(O)C[n+]1ccn(CC(O)(P(=O)(O)O)P(=O)(O)O)c1)c1ccc(C(=O)O)c(-c2c3ccc(=O)cc-3oc3cc(O)ccc23)c1 (centres unmarked) [Compound 6-FAM-ZOL, 3-(3-(4-carboxy-3-(6-hydroxy-3-oxo-3H-xanthen-9-yl)benzamido)-2-hydroxypropyl)-1-(2-hydroxy-2,2-diphosphonoethyl)-1H-imidazol-3-ium] | – | – | – | Maximum absorption wavelength (λmax (abs), nm) [1]: 493 nm; Maximum emission wavelength (λmax (em), nm) [1]: 516 nm; HAP binding affinity (retention time on HAP column, normalized to RIS) [2]: slightly longer retention time on the HAP column than its 5-isomer; accumulation of unprenylated Rap1A (anti-prenylation activity) [3]: retain some activity, although their potencies are weaker than native ZOL; Extinction coefficient [4]: 73,000 (pH 7.2) M^−1cm^−1
2 | O=P(O)(O)C(O)(Cc1cnc2ccccn12)P(=O)(O)O [MIN, (1-Hydroxy-2-imidazo[1,2-a]pyridin-3-yl-1-phosphonoethyl)phosphonic acid] | 22 | – | – | –
3 | O=C(O)C(O)(Cc1cnc2ccccn12)P(=O)(O)O (centres unmarked) [MINPC, 2-hydroxy-3-imidazo[1,2-a]pyridin-3-yl-2-phosphonopropionic acid] | – | much less active than the N-BPs | – | –
4 | O=C(O)C(O)(Cc1cccnc1)P(=O)(O)O (centres unmarked) [RISPC, 2-hydroxy-2-phosphono-3-pyridin-3-ylpropanoic acid] | – | much less active than the N-BPs | RIS>dRIS>RISPC | –
5 | O=P(O)(O)C(O)(Cn1ccnc1)P(=O)(O)O [ZOL, [1-hydroxy-2-(1H-imidazol-1-yl)ethane-1,1-diyl]bis(phosphonic acid)] | 18 | – | – | –
6 | O=P(O)(O)C(Cc1cccnc1)P(=O)(O)O [dRIS, (2-pyridin-3-ylethane-1,1-diyl)bis(phosphonic acid)] | – | – | RIS>dRIS>RISPC | –
